Assay results: PubChem BioAssay (NCI)
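48-hour exposure; five concentrations; linearly interpolated endpoints. At the TGI there is no net growth.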

Assays:
Assay in all cases: DTP human tumour cell line panel, 48 h
786-0 renal = tested on: 786-0 renal
A498 renal = tested on: A498 renal
A549 NSCLC = tested on: A549 NSCLC
ACHN renal = tested on: ACHN renal
BT-549 breast = tested on: BT-549 breast
CAKI-1 renal = tested on: CAKI-1 renal
CCRF-CEM leukemia = tested on: CCRF-CEM leukemia
COLO 205 colon = tested on: COLO 205 colon
DU-145 prostate = tested on: DU-145 prostate
HCT-116 colon = tested on: HCT-116 colon
HCT-15 colon = tested on: HCT-15 colon
HL-60(TB) leukemia = tested on: HL-60(TB) leukemia
HOP-62 NSCLC = tested on: HOP-62 NSCLC
HOP-92 NSCLC = tested on: HOP-92 NSCLC
HS 578T breast = tested on: HS 578T breast
HT29 colon = tested on: HT29 colon
IGROV1 ovarian = tested on: IGROV1 ovarian
K-562 leukemia = tested on: K-562 leukemia
KM12 colon = tested on: KM12 colon
LOX IMVI melanoma = tested on: LOX IMVI melanoma
M14 melanoma = tested on: M14 melanoma
MALME-3M melanoma = tested on: MALME-3M melanoma
MCF7 breast = tested on: MCF7 breast
MDA-MB-231 breast = tested on: MDA-MB-231 breast
MDA-MB-435 = tested on: MDA-MB-435
MOLT-4 leukemia = tested on: MOLT-4 leukemia
NCI-H226 lung = tested on: NCI-H226 lung
NCI-H23 lung = tested on: NCI-H23 lung
NCI-H460 lung = tested on: NCI-H460 lung
NCI-H522 lung = tested on: NCI-H522 lung
NCI/ADR-RES ovarian = tested on: NCI/ADR-RES ovarian
OVCAR-3 ovarian = tested on: OVCAR-3 ovarian
OVCAR-4 ovarian = tested on: OVCAR-4 ovarian
OVCAR-5 ovarian = tested on: OVCAR-5 ovarian
OVCAR-8 ovarian = tested on: OVCAR-8 ovarian
PC-3 prostate = tested on: PC-3 prostate
RPMI-8226 leukemia = tested on: RPMI-8226 leukemia
RXF 393 renal = tested on: RXF 393 renal
SF-268 CNS = tested on: SF-268 CNS
SF-295 CNS = tested on: SF-295 CNS
SF-539 CNS = tested on: SF-539 CNS
SK-MEL-2 melanoma = tested on: SK-MEL-2 melanoma
SK-MEL-28 melanoma = tested on: SK-MEL-28 melanoma
SK-MEL-5 melanoma = tested on: SK-MEL-5 melanoma
SK-OV-3 ovarian = tested on: SK-OV-3 ovarian
SN12C renal = tested on: SN12C renal
SNB-19 CNS = tested on: SNB-19 CNS
SNB-75 CNS = tested on: SNB-75 CNS
SR leukemia = tested on: SR leukemia
SW-620 colon = tested on: SW-620 colon
T-47D breast = tested on: T-47D breast
TK-10 renal = tested on: TK-10 renal
U251 CNS = tested on: U251 CNS
UACC-257 melanoma = tested on: UACC-257 melanoma
UACC-62 melanoma = tested on: UACC-62 melanoma
UO-31 renal = tested on: UO-31 renal

## COc1cc2c(/C=C3/C(=O)Nc4ccc(Cl)cc43)c(Cl)[nH]c2cc1C
786-0 renal
  TGI: 15.4 µM
A498 renal
  TGI: 22.9 µM
A549 NSCLC
  TGI: 16.2 µM
ACHN renal
  TGI: 10.8 µM
BT-549 breast
  TGI: 1.08 µM
CAKI-1 renal
  TGI: 14.8 µM
CCRF-CEM leukemia
  TGI: 0.933 µM
COLO 205 colon
  TGI: 2.44 µM
DU-145 prostate
  TGI: 4.38 µM
HCT-116 colon
  TGI: 10.7 µM
HCT-15 colon
  TGI: 4.7 µM
HL-60(TB) leukemia
  TGI: 13.6 µM
HOP-62 NSCLC
  TGI: 13.7 µM
HOP-92 NSCLC
  TGI: 24.2 µM
HS 578T breast
  TGI: 19 µM
HT29 colon
  TGI: 7.54 µM
IGROV1 ovarian
  TGI: 5.43 µM
K-562 leukemia
  TGI: 6.3 µM
KM12 colon
  TGI: 10 µM
LOX IMVI melanoma
  TGI: 6.25 µM
M14 melanoma
  TGI: 13.7 µM
MALME-3M melanoma
  TGI: 20.9 µM
MCF7 breast
  TGI: 34.9 µM
MDA-MB-231 breast
  TGI: 4.62 µM
MDA-MB-435
  TGI: 0.57 µM
MOLT-4 leukemia
  TGI: 0.814 µM
NCI-H226 lung
  TGI: 13.3 µM
NCI-H23 lung
  TGI: 7.13 µM
NCI-H460 lung
  TGI: 13.9 µM
NCI-H522 lung
  TGI: 7.01 µM
NCI/ADR-RES ovarian
  TGI: 6.44 µM
OVCAR-3 ovarian
  TGI: 3.14 µM
OVCAR-4 ovarian
  TGI: 11.4 µM
OVCAR-5 ovarian
  TGI: 17.1 µM
OVCAR-8 ovarian
  TGI: 19.7 µM
PC-3 prostate
  TGI: 11.6 µM
RPMI-8226 leukemia
  TGI: 5.13 µM
RXF 393 renal
  TGI: 20.5 µM
SF-268 CNS
  TGI: 43.7 µM
SF-295 CNS
  TGI: 10.5 µM
SF-539 CNS
  TGI: 0.638 µM
SK-MEL-2 melanoma
  TGI: 29.8 µM
SK-MEL-28 melanoma
  TGI: 14.5 µM
SK-MEL-5 melanoma
  TGI: 10.4 µM
SK-OV-3 ovarian
  TGI: 10.6 µM
SN12C renal
  TGI: 2.67 µM
SNB-19 CNS
  TGI: 12.7 µM
SNB-75 CNS
  TGI: 5.71 µM
SR leukemia
  TGI: 0.926 µM
SW-620 colon
  TGI: 19.7 µM
T-47D breast
  TGI: 26.9 µM
TK-10 renal
  TGI: 8.48 µM
U251 CNS
  TGI: 4.62 µM
UACC-257 melanoma
  TGI: 22.4 µM
UACC-62 melanoma
  TGI: 2.87 µM
UO-31 renal
  TGI: 15.8 µM
